For one assay, the system named is SKIP protein. The assay can be described thus: Immunoblot of endogenous SKIP protein in 293 cells exposed to FP. It counts as cell-based. As to conditions: 293 cells exposed for 18 hr. Here is the method: (§1) SKIP expression is blocked by Flavopiridol (FP), a CDK inhibitor currently in clinical trials. […] SKIP protein levels decline starting at lOnM FP, though mRNA levels are unaffected at 10 nM FP.

Another assay has as its system SKIP mRNA. The assay can be described thus: SKIP mRNA levels in 293 cells exposed to FP. The following applies: 10 nM FP. It counts as cell-based. Here is the method: as §1
Assay [1] relates to Ser2-phosphorylated RNAPII. The assay can be described thus: Immunoblot of Ser2-phosphorylated RNAPII in response to FP. It counts as cell-based. Here is the method:
FIG. 8. Immunoblot detection of SKIP and Ser2-phosphorylated RNAPII in response to increasing levels of flavopiridol.
In contrast, levels of Ser2-phosphorylated RNAPII decline with exposure to much higher concentrations of FP (>100 nM).

The subject of the next assay is p21. Briefly: Immunoblot of p21 protein in U2OS cells. The format is cell-based, human. As to conditions: U2OS cells transfected with control or SKIP siRNA, proteasome inhibitor treatment. The source says:
As observed for many essential proteins, depletion of SKIP by siRNA increases endogenous p53 levels. […] To assess whether SKIP plays a role in the normal p53 stress response, endogenous p53 was induced in two human cancer cell lines, U2OS (osteosarcoma) and HCT116 (colon cancer), using the chemotherapeutic DNA damage agents etoposide (U2OS cells) or doxorubicin (HCT116 cells). […] Consequently, PUMA expression was elevated in SKIP-depleted cells, and increased further with DNA damage (FIG. 1). In contrast, both basal and stress-induced p21 mRNA levels decreased in SKIP-depleted HCT116 or U2OS cells, compared with cells treated with a control siRNA, accompanied by a strong block to p21 protein expression, as detected by immunoblot (FIG. 1A, 1B, lanes 1-3 and 4-6). Similar results were obtained using two different SKIP siRNAs.
To determine whether SKIP might also affect p21 protein stability, the rate of p21 protein turnover was measured in SKIP knockdown cells in the absence of stress. Forty-eight hours after transfection with control or SKIP siRNA, U2OS cells were treated with cycloheximide (CHX) to prevent new protein synthesis, and the decay of endogenous p21 protein was measured.
On the technique in general: A western blot detects proteins with antibodies after separation by electrophoresis.

For another assay, the system named is p21 mRNA. The assay can be described thus: TGF-β induction of p21 mRNA in MDA-MB-231 cells (qRT-PCR). The format is cell-based, human. As to conditions: TGF-β 5 ng/mL. Here is the method: FIG. 5. SKIP is required for Nutlin and TGF-β-induced p21 gene expression. (A, left) qRT-PCR analysis of p21 and PUMA mRNA levels. U2OS cells were transfected with control or SKIP siRNA for 48 h, and incubated in the presence or absence of Nutlin (10 μM) for 18 h. (Right, lanes 1-4) Protein lysates were subjected to immunoblot analysis. (B) qRT-PCR analysis of p21 mRNA levels. MDA-MB-231 cells were transfected with control or SKIP siRNA for 48 h, followed by incubation in the presence or absence of TGF-β (5 ng/mL) for the indicated times. (C, lanes 1-6) Immunoblot analysis of SKIP, Smad2/3, p53, p21, or GAPDH in cells transfected with control or SKIP siRNA for 48 h, followed by treatment with TGF-β (5 ng/mL) for the indicated times. (D, left) qRT-PCR analysis of p21 mRNA levels in HCT 116 p53^−/− cells, H1299 cells, HeLa cells and MDA-MB-231 cells transfected with control or SKIP siRNA for 48 h. (Right, lanes 1-8) Protein lysates were subjected to immunoblot analysis. All of the mRNA expression levels were normalized to GAPDH mRNA, and are represented as fold increase or decrease over untreated cells. Error bars represent the standard deviation obtained from three independent experiments. […]
A general note: Quantitative PCR measures a nucleic acid by following its amplification.

In assay [2] the target is T1, SKIP (Ski-interacting protein), endogenous (human, UniProt Q13573 2-536).
T1 construct: Endogenous protein of human HCT116 nuclear extract (pull-downs) or U2OS whole-cell lysate (co-IP); also called SNW1; NCoA62
T1 sequence: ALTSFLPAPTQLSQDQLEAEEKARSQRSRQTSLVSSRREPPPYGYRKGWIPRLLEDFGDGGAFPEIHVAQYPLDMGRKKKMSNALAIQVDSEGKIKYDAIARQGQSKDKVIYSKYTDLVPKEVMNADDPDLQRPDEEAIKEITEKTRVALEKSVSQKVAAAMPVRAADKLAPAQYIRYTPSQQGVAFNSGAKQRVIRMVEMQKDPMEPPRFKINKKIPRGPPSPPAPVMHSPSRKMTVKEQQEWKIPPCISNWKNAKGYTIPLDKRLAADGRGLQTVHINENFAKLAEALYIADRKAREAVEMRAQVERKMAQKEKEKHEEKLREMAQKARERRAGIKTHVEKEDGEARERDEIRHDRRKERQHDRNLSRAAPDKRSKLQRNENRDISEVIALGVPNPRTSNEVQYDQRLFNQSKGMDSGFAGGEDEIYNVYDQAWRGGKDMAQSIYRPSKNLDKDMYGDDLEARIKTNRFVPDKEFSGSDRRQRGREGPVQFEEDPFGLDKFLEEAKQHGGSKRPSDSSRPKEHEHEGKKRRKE
Briefly: GST pull-down from HCT116 nuclear extract, Western blot. Here is the method:
SST fusion constructs were expressed in BL21 *Escherichia coli* cells, and crude bacterial lysates were prepared by sonication in GST lysis buffer (25 mM Tris at pH 7.5, 150 mM NaCl, 1 mM EDTA, protease inhibitor). Approximately 10 μg of the appropriate GST fusion proteins was incubated with precleared HCT116 nuclear extract for 2 h at 4° C. The binding reaction was then added with 30 μL of glutathione-Sepharose beads and mixed for another 1 h at 4° C. The beads were washed four times with the above GST lysis buffer, separated on a 10% SDS-PACE, and analyzed by Western blotting.
(§2) Figure 4: FIG. 4. SKIP associates with unspliced p21 mRNA and recruits U2AF65. (A) Immunoblot analysis of the interaction between SKIP, U2AF35, and U2AF65 in GST pull-down experiments from HCT116 cell nuclear extract. (B) Total proteins were extracted from U2OS cells for coimmunoprecipitation. Immunoprecipitates were examined by Western blot using antibodies against SKIP, U2AF35, or U2AF65. (C) ChIP analysis of U2AF65 binding on the p21 and PUMA genes. U2OS cells were transfected with control or SKIP siRNA for 48 h, followed by treatment with vehicle or etoposide (20 μM) for 6 h. Protein extracts were immunoprecipitated with antibodies against U2AF65. ChIP-enriched DNA was quantified by qPCR with the indicated primers in FIG. 2A. […] Immunoprecipitated p21 mRNA was detected using qRT-PCR with the indicated primers.

For assay [3], the target named is T1, SKIP (Ski-interacting protein), …. Briefly: co-immunoprecipitation with SKIP antibody from U2OS whole-cell lysate, Western blot. Here is the method: The immune complexes were subjected to SDS-PAGE followed by immunoblotting with the secondary antibody. For RNA-IP experiments, cells were lysed in ice-cold NET-2 buffer (50 mM Tris-HCL at pH 7.4, 300 mM NaCl, 0.5% [vol/vol] Nonidet P-40, 1× complete protease inhibitors [Roche], 100 U/mL RNase OUT [Invitrogen]). The lysate was incubated with the indicated antibodies or control normal rabbit/mouse IgG on a rotator overnight at 4° C., followed by addition of protein A/G agarose (Invitrogen) for 2 h at 4° C. Beads were then washed four times using the NET-2 buffer. Immunoprecipitated RNA was then extracted using Trizol and reverse-transcribed with random hexamers. The resulting cDNA was analyzed with the indicated primer sets (Table 5).
as §2, with “U2OS cells were transfected with control or SKIP siRNA for 48 h, followed by treatment with vehicle or etoposide (20 μM) for 6 h. Protein extracts were immunoprecipitated with antibodies against U2AF65.” left out

Where a SMILES comes first, the peptide text is derived from it. The star is where a group is joined. Cbz = O=C(OCc1ccccc1)*

On to `CN1CC[C@H](c2c(O)cc(O)c3c(=O)cc(-c4ccccc4Cl)oc23)[C@H](O)C1` [FP, Flavopiridol], for which, in the assay on SKIP protein, the “FP concentration at which SKIP protein levels start to decline” value is reported as “lO”. For the same molecule, the “SKIP mRNA levels” value with SKIP mRNA is reported as “unaffected”. The “FP concentration at which levels of Ser2-phosphorylated RNAPII decline” value in assay [1] is recorded as above 100 nM.

On to `CC(C)C[C@@H](C=O)NC(=O)[C@H](CC(C)C)NC(=O)[C@H](CC(C)C)NC(=O)OCc1ccccc1` [MG132] (Cbz-Leu-Leu-Leu-aldehyde), for which, in the assay on p21, the p21 protein levels result is recorded as “elevated p21 protein levels”.

As to TGF-β, the “time of peak p21 mRNA levels after induction” value with p21 mRNA worked out at 4 h.

B1: GST-U2AF35 (other, UniProt Q01081 1-240, looked up)
chain: MAEYLASIFGTEKDKVNCSFYFKIGACRHGDRCSRLHNKPTFSQTIALLNIYRNPQNSSQSADGLRCAVSDVEMQEHYDEFFEEVFTEMEEKYGEVEEMNVCDNLGDHLVGNVYVKFRREEDAEKAVIDLNNRWFNGQPIHAELSPVTDFREACCRQYEMGECTRGGFCNFMHLKPISRELRRELYGRRRKKHRSRSRSRERRSRSRDRGRGGGGGGGGGGGGRERDRRRSRDRERSGRF
notes: not shown: glutathione-S-transferase (GST) fusion tag
As to B1, in assay [2], the binding result was “no binding”.

B2: U2AF35 (other, human, UniProt Q01081 2-240, looked up)
chain: AEYLASIFGTEKDKVNCSFYFKIGACRHGDRCSRLHNKPTFSQTIALLNIYRNPQNSSQSADGLRCAVSDVEMQEHYDEFFEEVFTEMEEKYGEVEEMNVCDNLGDHLVGNVYVKFRREEDAEKAVIDLNNRWFNGQPIHAELSPVTDFREACCRQYEMGECTRGGFCNFMHLKPISRELRRELYGRRRKKHRSRSRSRERRSRSRDRGRGGGGGGGGGGGGRERDRRRSRDRERSGRF
notes: Endogenous protein from human cancer cell lines; also called nuclear U2AF35
As for B2, the binding result in assay [3] is on record as “no binding”.

These data come from patent US8372819B2, “Methods and compositions for targeting skip” (Salk Institute for Biological Studies, priority 2010, dated 2013).
